Test results as given in ChEMBL document CHEMBL5291721, “A preclinical secondary pharmacology resource illuminates target-adverse drug reaction associations of marketed drugs” (Nat Commun, 2023).

Assays:
[1] = target: Epidermal growth factor receptor (Homo sapiens, UniProt P00533); assay type: functional
[2] = target: T1, Estrogen receptor (Homo sapiens, UniProt P03372); assay type: functional
T1 sequence (P03372 whole entry): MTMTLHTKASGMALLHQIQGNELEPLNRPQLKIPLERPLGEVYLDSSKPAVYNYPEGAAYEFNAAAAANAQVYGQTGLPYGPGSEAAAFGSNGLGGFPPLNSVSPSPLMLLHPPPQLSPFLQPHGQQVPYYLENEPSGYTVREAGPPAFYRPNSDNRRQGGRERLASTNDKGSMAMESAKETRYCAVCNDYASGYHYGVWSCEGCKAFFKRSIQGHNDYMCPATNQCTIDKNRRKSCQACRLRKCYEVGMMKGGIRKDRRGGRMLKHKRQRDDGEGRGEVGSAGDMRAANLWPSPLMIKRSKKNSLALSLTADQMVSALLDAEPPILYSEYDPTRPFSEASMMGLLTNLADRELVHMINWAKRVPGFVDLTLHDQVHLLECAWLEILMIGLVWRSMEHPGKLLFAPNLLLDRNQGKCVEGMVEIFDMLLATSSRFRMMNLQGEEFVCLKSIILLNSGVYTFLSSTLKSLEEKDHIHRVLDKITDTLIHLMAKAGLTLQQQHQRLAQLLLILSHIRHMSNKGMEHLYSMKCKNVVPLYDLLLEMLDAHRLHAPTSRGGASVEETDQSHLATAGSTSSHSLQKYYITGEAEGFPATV

[3] = target: Acetylcholinesterase (Homo sapiens, UniProt P22303); assay type: functional
[4] = target: T2, Androgen receptor (Rattus norvegicus, UniProt P15207); assay type: functional
T2 sequence (P15207 whole entry): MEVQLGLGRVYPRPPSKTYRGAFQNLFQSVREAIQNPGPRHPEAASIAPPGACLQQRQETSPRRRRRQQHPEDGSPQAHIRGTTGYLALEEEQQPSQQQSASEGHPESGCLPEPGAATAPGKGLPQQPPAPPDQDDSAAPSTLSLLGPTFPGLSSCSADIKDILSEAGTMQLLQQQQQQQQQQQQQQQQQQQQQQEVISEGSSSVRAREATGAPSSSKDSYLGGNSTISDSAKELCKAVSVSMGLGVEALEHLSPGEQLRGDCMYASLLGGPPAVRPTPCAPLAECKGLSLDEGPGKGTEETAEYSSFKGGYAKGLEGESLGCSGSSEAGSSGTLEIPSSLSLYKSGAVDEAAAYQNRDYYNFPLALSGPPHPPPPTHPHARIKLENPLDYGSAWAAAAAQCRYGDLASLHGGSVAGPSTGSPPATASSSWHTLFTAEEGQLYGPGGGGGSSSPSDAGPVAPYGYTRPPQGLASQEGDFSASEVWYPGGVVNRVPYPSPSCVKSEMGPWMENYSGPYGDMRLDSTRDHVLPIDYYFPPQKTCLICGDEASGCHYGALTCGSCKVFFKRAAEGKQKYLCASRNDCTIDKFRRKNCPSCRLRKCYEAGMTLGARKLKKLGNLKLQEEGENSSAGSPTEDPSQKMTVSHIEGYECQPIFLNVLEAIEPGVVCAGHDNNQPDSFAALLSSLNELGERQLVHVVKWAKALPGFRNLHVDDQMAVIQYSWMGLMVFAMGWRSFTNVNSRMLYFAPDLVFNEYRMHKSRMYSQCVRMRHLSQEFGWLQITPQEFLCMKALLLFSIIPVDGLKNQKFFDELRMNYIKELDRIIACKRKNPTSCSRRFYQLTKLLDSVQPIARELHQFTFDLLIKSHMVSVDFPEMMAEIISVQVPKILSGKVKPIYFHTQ

[5] = target: Cannabinoid receptor 1 (Homo sapiens, UniProt P21554); assay type: functional
[6] = target: T3, D(4) dopamine receptor (Homo sapiens, UniProt P21917)
T3 sequence (P21917 whole entry): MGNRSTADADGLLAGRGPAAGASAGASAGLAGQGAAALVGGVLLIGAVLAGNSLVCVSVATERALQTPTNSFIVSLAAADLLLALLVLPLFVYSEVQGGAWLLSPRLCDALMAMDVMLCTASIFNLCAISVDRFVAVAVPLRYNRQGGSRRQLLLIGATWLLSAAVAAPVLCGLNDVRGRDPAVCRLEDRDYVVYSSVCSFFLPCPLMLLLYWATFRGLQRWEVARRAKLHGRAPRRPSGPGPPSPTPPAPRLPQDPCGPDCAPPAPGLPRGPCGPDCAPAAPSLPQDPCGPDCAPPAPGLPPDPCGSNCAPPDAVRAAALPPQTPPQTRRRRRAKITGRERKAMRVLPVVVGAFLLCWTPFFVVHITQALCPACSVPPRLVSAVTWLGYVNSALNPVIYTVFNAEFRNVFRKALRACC

[7] = target: Histamine H2 receptor (Homo sapiens, UniProt P25021)
[8] = target: 5-hydroxytryptamine receptor 6 (Homo sapiens, UniProt P50406)
[9] = target: Substance-P receptor (Homo sapiens, UniProt P25103)
[10] = target: T4, Alpha-1A adrenergic receptor (Homo sapiens, UniProt P35348)
T4 sequence (P35348 whole entry): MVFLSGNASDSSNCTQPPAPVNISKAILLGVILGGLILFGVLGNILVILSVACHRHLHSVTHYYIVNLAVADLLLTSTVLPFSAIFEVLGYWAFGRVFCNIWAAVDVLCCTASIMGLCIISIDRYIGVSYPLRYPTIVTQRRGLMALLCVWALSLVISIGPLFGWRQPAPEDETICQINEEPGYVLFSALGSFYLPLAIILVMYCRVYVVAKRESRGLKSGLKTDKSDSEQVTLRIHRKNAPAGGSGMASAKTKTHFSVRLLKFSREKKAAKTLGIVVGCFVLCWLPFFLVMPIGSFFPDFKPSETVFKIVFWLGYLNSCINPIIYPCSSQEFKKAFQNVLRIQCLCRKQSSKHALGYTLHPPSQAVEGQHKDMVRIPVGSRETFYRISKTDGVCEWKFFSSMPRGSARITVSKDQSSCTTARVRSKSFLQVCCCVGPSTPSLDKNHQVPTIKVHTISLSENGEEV

[11] = target: Synaptic vesicular amine transporter (Rattus norvegicus, UniProt Q01827); assay type: functional
[12] = target: Voltage-dependent L-type calcium channel subunit alpha-1C (Homo sapiens, UniProt Q13936); assay type: functional, cell-based
Further: assay procedure not described here.

Chain of Voltage-dependent L-type calcium channel subunit alpha-1C (Q13936 whole entry): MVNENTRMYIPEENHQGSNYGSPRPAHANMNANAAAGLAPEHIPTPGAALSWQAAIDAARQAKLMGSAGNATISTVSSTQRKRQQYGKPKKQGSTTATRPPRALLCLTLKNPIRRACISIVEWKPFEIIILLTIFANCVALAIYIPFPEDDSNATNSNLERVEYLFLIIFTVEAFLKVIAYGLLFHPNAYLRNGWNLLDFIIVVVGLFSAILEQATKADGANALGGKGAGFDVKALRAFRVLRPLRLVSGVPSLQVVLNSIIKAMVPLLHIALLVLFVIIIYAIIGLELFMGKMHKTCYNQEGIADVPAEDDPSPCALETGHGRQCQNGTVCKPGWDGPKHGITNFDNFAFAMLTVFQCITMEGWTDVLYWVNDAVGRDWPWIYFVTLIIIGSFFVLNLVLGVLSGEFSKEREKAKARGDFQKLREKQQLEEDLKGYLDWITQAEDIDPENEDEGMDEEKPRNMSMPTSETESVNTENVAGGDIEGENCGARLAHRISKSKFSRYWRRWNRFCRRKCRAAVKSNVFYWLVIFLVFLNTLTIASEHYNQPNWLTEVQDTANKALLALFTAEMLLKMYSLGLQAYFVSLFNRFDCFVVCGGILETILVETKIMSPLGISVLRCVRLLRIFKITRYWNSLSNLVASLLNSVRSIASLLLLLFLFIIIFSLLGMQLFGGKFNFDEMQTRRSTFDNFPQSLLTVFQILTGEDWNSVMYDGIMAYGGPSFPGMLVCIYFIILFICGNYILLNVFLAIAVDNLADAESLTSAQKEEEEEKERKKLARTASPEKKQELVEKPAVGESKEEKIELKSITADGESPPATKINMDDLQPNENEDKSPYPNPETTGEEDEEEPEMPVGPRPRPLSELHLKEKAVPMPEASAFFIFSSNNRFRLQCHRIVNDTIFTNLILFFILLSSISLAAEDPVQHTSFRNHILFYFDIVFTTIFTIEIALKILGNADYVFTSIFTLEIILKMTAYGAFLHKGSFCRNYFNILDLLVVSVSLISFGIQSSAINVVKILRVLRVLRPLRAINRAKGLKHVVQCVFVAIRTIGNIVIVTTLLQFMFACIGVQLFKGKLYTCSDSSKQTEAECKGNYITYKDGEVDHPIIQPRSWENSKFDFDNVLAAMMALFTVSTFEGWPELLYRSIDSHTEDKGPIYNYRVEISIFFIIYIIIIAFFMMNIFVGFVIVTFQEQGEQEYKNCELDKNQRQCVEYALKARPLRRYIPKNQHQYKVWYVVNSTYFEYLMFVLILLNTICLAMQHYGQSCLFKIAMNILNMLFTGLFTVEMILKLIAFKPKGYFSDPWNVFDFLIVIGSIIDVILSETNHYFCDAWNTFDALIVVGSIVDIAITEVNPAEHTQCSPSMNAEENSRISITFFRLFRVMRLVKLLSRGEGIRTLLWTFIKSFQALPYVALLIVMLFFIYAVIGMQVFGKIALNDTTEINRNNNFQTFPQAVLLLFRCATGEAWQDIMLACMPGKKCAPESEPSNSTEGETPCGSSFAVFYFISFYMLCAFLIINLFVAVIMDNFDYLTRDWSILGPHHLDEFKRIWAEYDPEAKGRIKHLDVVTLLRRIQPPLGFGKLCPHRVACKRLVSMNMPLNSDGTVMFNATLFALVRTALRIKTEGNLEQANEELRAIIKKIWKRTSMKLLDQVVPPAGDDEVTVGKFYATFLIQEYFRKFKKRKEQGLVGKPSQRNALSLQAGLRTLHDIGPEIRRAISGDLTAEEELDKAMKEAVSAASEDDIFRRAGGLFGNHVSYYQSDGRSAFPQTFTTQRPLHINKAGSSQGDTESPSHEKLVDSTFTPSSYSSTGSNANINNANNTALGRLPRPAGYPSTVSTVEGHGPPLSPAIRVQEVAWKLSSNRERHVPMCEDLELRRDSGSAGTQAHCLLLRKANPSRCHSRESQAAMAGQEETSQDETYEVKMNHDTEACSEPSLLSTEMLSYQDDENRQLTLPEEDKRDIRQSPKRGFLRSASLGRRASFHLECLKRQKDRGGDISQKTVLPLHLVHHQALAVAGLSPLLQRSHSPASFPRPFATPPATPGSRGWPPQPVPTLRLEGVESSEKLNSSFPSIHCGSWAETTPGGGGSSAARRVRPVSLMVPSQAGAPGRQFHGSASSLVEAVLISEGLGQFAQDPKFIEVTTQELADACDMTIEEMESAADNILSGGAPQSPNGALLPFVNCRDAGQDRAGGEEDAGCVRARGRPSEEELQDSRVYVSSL
Chain of Substance-P receptor (P25103 whole entry): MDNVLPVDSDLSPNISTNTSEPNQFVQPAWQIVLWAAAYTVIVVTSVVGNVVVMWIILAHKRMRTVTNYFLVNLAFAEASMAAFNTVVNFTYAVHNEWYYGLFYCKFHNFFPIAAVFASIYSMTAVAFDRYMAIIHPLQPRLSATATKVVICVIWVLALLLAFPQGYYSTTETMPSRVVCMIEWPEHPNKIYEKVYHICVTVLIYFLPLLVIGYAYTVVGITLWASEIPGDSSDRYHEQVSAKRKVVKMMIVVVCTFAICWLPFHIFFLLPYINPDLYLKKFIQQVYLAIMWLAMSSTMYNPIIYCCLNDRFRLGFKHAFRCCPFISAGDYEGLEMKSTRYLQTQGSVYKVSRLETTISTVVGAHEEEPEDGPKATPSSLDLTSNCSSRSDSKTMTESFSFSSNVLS
Chain of Histamine H2 receptor (P25021 whole entry): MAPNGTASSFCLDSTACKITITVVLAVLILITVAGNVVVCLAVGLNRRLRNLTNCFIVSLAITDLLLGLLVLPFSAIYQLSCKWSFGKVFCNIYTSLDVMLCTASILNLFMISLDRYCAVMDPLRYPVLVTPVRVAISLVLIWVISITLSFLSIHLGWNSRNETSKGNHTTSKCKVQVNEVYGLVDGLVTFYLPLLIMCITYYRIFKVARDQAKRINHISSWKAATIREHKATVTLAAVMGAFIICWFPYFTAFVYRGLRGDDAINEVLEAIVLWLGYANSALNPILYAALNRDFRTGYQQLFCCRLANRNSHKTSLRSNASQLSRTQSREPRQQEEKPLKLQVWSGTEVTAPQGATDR
Chain of Cannabinoid receptor 1 (P21554 whole entry): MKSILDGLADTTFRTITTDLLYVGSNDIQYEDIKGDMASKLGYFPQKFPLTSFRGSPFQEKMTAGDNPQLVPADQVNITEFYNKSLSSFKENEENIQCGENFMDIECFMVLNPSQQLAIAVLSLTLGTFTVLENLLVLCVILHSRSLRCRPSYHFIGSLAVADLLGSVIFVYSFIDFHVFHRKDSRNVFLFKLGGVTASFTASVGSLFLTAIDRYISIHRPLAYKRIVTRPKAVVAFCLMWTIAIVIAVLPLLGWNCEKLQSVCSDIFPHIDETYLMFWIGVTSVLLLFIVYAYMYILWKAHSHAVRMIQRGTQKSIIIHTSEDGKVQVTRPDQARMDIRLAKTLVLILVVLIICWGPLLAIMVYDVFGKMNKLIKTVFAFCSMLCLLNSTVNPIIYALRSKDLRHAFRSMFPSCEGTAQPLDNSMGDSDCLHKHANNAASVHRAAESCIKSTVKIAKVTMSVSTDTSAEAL
Chain of Epidermal growth factor receptor (P00533 whole entry): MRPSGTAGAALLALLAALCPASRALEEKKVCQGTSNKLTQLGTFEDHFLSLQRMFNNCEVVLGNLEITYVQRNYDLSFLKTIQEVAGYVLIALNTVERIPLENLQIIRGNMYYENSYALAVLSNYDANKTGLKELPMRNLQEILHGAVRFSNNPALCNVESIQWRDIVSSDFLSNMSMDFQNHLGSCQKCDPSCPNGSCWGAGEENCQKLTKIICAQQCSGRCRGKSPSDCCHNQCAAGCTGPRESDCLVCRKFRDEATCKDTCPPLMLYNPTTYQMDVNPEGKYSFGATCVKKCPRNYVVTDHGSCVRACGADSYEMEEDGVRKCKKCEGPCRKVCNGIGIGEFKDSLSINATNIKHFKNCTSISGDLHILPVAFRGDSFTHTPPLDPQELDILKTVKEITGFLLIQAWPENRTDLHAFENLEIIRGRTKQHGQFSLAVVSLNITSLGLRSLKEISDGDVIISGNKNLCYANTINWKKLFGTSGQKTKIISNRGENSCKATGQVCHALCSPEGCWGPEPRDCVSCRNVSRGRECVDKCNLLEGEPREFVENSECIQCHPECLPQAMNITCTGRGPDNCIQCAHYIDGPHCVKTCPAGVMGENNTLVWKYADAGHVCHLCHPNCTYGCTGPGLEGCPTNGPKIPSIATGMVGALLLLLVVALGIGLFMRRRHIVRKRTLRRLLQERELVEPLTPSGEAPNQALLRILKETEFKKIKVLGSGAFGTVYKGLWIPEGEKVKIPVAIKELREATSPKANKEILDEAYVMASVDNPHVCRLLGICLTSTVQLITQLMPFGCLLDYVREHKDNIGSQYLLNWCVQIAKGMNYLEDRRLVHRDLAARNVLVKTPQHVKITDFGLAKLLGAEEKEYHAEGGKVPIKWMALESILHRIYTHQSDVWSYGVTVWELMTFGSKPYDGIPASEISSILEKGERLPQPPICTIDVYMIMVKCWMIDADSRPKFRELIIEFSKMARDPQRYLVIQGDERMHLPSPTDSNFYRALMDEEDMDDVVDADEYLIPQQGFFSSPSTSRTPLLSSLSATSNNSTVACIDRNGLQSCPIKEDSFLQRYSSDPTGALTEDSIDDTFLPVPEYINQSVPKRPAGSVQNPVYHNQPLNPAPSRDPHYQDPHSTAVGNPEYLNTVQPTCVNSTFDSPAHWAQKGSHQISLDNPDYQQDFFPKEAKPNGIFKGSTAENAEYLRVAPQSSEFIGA

## CC(=N)N1CC[C@H](SC2=C(C(=O)O)N3C(=O)[C@H]([C@@H](C)O)[C@H]3C2)C1
[1]
  AC50: > 300 µM
[2]
  AC50: 84 µM
[3]
  AC50: > 300 µM

## CC1(C)S[C@@H]2[C@H](NC(=O)[C@H](N)c3ccc(O)cc3)C(=O)N2[C@H]1C(=O)O [AMOXICILLIN]
[4]
  AC50: > 30 µM
[5]
  AC50: > 10 µM
[6]
  AC50: > 10 µM
[7]
  AC50: > 10 µM
[8]
  AC50: > 10 µM
[9]
  AC50: > 10 µM
[10]
  AC50: > 10 µM

## CNCC[C@@H](Oc1ccccc1C)c1ccccc1 [ATOMOXETINE]
[4]
  AC50: > 30 µM

## CCc1oc2ccccc2c1C(=O)c1cc(Br)c(O)c(Br)c1 [BENZBROMARONE]
[2]
  AC50: > 30 µM

## Cc1ccc([C@@H]2O[C@H](CO)[C@@H](O)[C@H](O)[C@H]2O)cc1Cc1ccc(-c2ccc(F)cc2)s1 [CANAGLIFLOZIN ANHYDROUS]
[11]
  AC50: 20 µM

## C=C(C)[C@@H]1CCC(C)=C[C@H]1c1c(O)cc(CCCCC)cc1O [CANNABIDIOL]
[1]
  AC50: > 30 µM
[2]
  AC50: > 30 µM
[3]
  AC50: 17 µM

## Clc1cccc(Cl)c1N=C1NCCN1 [CLONIDINE]
[7]
  AC50: > 10 µM
[9]
  AC50: > 10 µM

## COC(=O)[C@H](c1ccccc1Cl)N1CCc2sccc2C1 [CLOPIDOGREL]
[5]
  AC50: > 10 µM
[6]
  AC50: > 10 µM
[2]
  AC50: > 30 µM
[7]
  AC50: > 10 µM
[8]
  AC50: > 10 µM
[9]
  AC50: > 10 µM
[10]
  AC50: > 10 µM

## CN1C[C@H](C(=O)N[C@]2(C)O[C@@]3(O)[C@@H]4CCCN4C(=O)[C@H](Cc4ccccc4)N3C2=O)C[C@@H]2c3cccc4[nH]cc(c34)C[C@H]21 [DIHYDROERGOTAMINE]
[7]
  AC50: 0.257 µM

## CNCC[C@H](Oc1cccc2ccccc12)c1cccs1 [DULOXETINE]
[12]
  AC50: 29 µM
[11]
  AC50: 1.4 µM

## C#Cc1cccc(Nc2ncnc3cc(OCCOC)c(OCCOC)cc23)c1 [ERLOTINIB]
[2]
  AC50: > 30 µM
[3]
  AC50: > 30 µM

## CC1(C)O[C@@H]2C[C@H]3[C@@H]4C[C@H](F)C5=CC(=O)C=C[C@]5(C)[C@H]4[C@@H](O)C[C@]3(C)[C@]2(C(=O)CO)O1 [FLUNISOLIDE]
[2]
  AC50: > 30 µM

## C[C@H]1Oc2cc(cnc2N)-c2c(nn(C)c2C#N)CN(C)C(=O)c2ccc(F)cc21 [LORLATINIB]
[1]
  AC50: 2.9 µM
[2]
  AC50: > 30 µM
[3]
  AC50: 1.8 µM

## Cc1cnc(NC(=O)C2=C(O)c3ccccc3S(=O)(=O)N2C)s1 [MELOXICAM]
[5]
  AC50: > 10 µM
[6]
  AC50: > 10 µM
[7]
  AC50: > 10 µM
[8]
  AC50: > 10 µM
[9]
  AC50: > 10 µM
[10]
  AC50: > 10 µM

## CNCCC=C1c2ccccc2CCc2ccccc21 [NORTRIPTYLINE]
[8]
  AC50: 0.256 µM

## CN(C)c1cc(CNCC(C)(C)C)c(O)c2c1C[C@H]1C[C@H]3[C@H](N(C)C)C(O)=C(C(N)=O)C(=O)[C@@]3(O)C(O)=C1C2=O [OMADACYCLINE]
[4]
  AC50: > 30 µM

## COc1ccnc(C[S+]([O-])c2nc3ccc(OC(F)F)cc3[nH]2)c1OC (stereo not drawn) [PANTOPRAZOLE]
[6]
  AC50: > 10 µM
[7]
  AC50: > 10 µM
[9]
  AC50: > 10 µM
[10]
  AC50: > 10 µM

## COc1ccc(Cc2nccc3cc(OC)c(OC)cc23)cc1OC [PAPAVERINE]
[4]
  AC50: > 30 µM

## CNC[C@H](O)c1cccc(O)c1 [PHENYLEPHRINE]
[5]
  AC50: > 10 µM
[6]
  AC50: > 10 µM
[7]
  AC50: > 10 µM
[8]
  AC50: > 10 µM
[9]
  AC50: > 10 µM

## O=C1NC(=O)C(c2ccccc2)(c2ccccc2)N1 [PHENYTOIN]
[12]
  AC50: > 50 µM
[1]
  AC50: > 30 µM
[3]
  AC50: > 30 µM

## CC(C)COc1ccc(CNC(=O)N(Cc2ccc(F)cc2)C2CCN(C)CC2)cc1 [PIMAVANSERIN]
[11]
  AC50: 3.1 µM

## CC(C)C[C@H](CN)CC(=O)O [PREGABALIN]
[1]
  AC50: > 30 µM
[2]
  AC50: > 30 µM
[3]
  AC50: > 30 µM

## NC(=O)c1ncn([C@@H]2O[C@H](CO)[C@@H](O)[C@H]2O)n1 [RIBAVIRIN]
[12]
  AC50: > 50 µM
[11]
  AC50: > 30 µM

## O=C(Nc1c(Cl)cncc1Cl)c1ccc(OC(F)F)c(OCC2CC2)c1 [ROFLUMILAST]
[4]
  AC50: > 30 µM
[12]
  AC50: > 50 µM
[11]
  AC50: 12.1 µM

## CCCN(CCC)CCc1cccc2c1CC(=O)N2 [ROPINIROLE]
[1]
  AC50: > 30 µM
[7]
  AC50: > 10 µM
[3]
  AC50: > 30 µM

## CCCN(CCc1cccs1)[C@H]1CCc2c(O)cccc2C1 [ROTIGOTINE]
[1]
  AC50: > 30 µM
[2]
  AC50: > 30 µM
[3]
  AC50: 26 µM

## CC[C@H]1OC(=O)[C@H](C)[C@@H](O[C@H]2C[C@@](C)(OC)[C@@H](O)[C@H](C)O2)[C@H](C)[C@@H](O[C@@H]2O[C@H](C)C[C@H](N(C)C)[C@H]2O)[C@](C)(O)C[C@@H](C)/C(=N\OCOCCOC)[C@H](C)[C@@H](O)[C@]1(C)O [ROXITHROMYCIN]
[1]
  AC50: > 30 µM
[2]
  AC50: > 30 µM
[3]
  AC50: > 30 µM

## CC(C)N(CCCCOCC(=O)NS(C)(=O)=O)c1cnc(-c2ccccc2)c(-c2ccccc2)n1 [SELEXIPAG]
[4]
  AC50: 17 µM
[12]
  AC50: > 50 µM
[11]
  AC50: > 30 µM

## CC(=O)S[C@@H]1CC2=CC(=O)CC[C@]2(C)[C@H]2CC[C@@]3(C)[C@@H](CC[C@@]34CCC(=O)O4)[C@H]12 [SPIRONOLACTONE]
[6]
  AC50: > 10 µM
[1]
  AC50: > 30 µM
[2]
  AC50: > 30 µM
[7]
  AC50: > 10 µM
[9]
  AC50: > 10 µM
[10]
  AC50: > 10 µM
[3]
  AC50: > 30 µM

## NC(=O)NS(=O)(=O)c1ccc(N)cc1 [SULFACARBAMIDE]
[11]
  AC50: > 30 µM

## CCCCCCCCNC(C)C(O)c1ccc(SC(C)C)cc1 (stereo not drawn) [SULOCTIDIL]
[11]
  AC50: 0.0013 µM

## CCCCNc1ccc(C(=O)OCCN(C)C)cc1 [TETRACAINE]
[12]
  AC50: > 30 µM
[5]
  AC50: 0.0006 µM
[6]
  AC50: 4.14 µM
[7]
  AC50: 4.08 µM
[8]
  AC50: > 10 µM
[9]
  AC50: > 10 µM
[10]
  AC50: > 10 µM

## CC1(C)O[C@@H]2[C@@H](CO[C@@]3(COS(N)(=O)=O)OC(C)(C)O[C@@H]23)O1 [TOPIRAMATE]
[5]
  AC50: > 10 µM
[6]
  AC50: > 10 µM
[7]
  AC50: > 10 µM
[8]
  AC50: > 10 µM
[9]
  AC50: > 10 µM
[10]
  AC50: > 10 µM
